From PMC8443597, “A prostate-specific membrane antigen activated molecular rotor for real-time fluorescence imaging” (Nature Communications, 2021)

Legend:
[1] = target: T1, prostate-specific membrane antigen (PSMA) (Homo sapiens, UniProt Q04609); test: fluorescence saturation binding ([…]) with rhPSMA; IC50 from […]H-NAAG radioenzymatic assay; type: biochemical
T1 construct: gene FOLH1; extracellular domain of human PSMA (rhPSMA; amino acids 44–750)

[2] = target: T1, prostate-specific membrane antigen (PSMA); test: X-ray crystal structure ([…] Å); fluorescence saturation binding; IC50 from […]H-NAAG radioenzymatic assay; type: biochemical

T1 sequence (Q04609 44-750): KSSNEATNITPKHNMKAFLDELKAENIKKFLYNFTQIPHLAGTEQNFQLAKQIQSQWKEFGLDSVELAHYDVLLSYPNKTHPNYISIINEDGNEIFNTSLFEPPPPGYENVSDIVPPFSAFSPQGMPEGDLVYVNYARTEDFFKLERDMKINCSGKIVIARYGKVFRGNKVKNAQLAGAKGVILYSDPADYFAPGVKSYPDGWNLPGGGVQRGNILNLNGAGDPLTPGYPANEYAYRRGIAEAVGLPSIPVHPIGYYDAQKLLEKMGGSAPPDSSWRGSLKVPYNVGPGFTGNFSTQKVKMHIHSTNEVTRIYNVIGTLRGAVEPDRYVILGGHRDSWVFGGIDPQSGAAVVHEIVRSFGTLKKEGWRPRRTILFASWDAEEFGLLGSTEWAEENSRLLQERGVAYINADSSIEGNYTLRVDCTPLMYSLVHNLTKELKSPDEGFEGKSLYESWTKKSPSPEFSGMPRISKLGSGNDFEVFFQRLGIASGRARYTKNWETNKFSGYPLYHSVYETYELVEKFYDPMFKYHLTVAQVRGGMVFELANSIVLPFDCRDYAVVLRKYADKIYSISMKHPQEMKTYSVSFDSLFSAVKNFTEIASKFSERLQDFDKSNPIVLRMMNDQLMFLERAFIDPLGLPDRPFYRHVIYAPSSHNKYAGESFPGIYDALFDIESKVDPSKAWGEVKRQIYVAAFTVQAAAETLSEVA

Row | IC50 [1] [nM] | IC50 [2] [nM] | Structure (SMILES)
1 | 0.0996 | – | COC(=O)CCN1CCCc2cc(-c3ccc(C=C(C#N)C(=O)NCCCC[C@H](NC(=O)N[C@@H](CNC(=O)C(=O)O)C(=O)O)C(=O)O)s3)ccc21 [ODAP-490, (4 S,8 S)-15-cyano-16-(5-(1-(3-methoxy-3-oxopropyl)-1,2,3,4-tetrahydroquinolin-6-yl)thiophen-2-yl)-1,6,14-trioxo-2,5,7,13-tetraazahexadec-15-ene-1,4,8-tricarboxylic acid]
2 | – | 0.0631 | COC(=O)CCN1CCCc2cc(-c3ccc(C=C(C#N)C(=O)NCCCC[C@H](NC(=O)N[C@@H](CCC(=O)O)C(=O)O)C(=O)O)s3)ccc21 [Glu-490, (((S)-1-carboxy-5-(2-cyano-3-(5-(1-(3-methoxy-3-oxopropyl)-1,2,3,4-tetrahydroquinolin-6-yl)thiophen-2-yl)acrylamido)pentyl)carbamoyl)-L-glutamic acid]
3 | 0.118 | – | COC(=O)CCN1CCCc2cc(C=C(C#N)C(=O)NCCCC[C@H](NC(=O)N[C@@H](CNC(=O)C(=O)O)C(=O)O)C(=O)O)ccc21 [ODAP-436, (4 S,8 S)-15-cyano-16-(1-(3-methoxy-3-oxopropyl)-1,2,3,4-tetrahydroquinolin-6-yl)-1,6,14-trioxo-2,5,7,13-tetraazahexadec-15-ene-1,4,8-tricarboxylic acid]
